According to patent US6384173B1, “Silicone functionalized triclosan” (Siltech LLC, priority 2001, dated 2002):
Like-named read-outs stand apart in the source and are kept apart here.

How the values were obtained:
[1] = Thermal Gravimetric Analysis (weight percent lost); assay type: physicochemical; conditions: Perkin-Elmer TGA 7, temperature scanned from 40 to 250 degrees at 20 degree C./minute, at completion of scan
Method: Thermal Gravimetric Analysis
Measurements were obtained of the weight percent lost for the samples below using a Perkin-Elmer TGA 7 where the temperature was scanned from 40° to 250° at 20° C./minute. At the completion of the temperature scan for each, the following results were obtained: […]

[2] = TGA, 40 to 250 degrees at 20 degree C./minute; value marked (U.S. Pat. No. 6,197,072); cited from earlier work

Row | Compound | % Weight Loss [1] | % Weight Loss [2]
1 | Oc1cc(Cl)ccc1Oc1ccc(Cl)cc1Cl [Triclosan, triclosan] | 62% | –
2 | Triclosan Acetate | – | 12 (U.S. Pat. No. 6,197,072) %
